Results as given in US9682995B2, “Amino-substituted isothiazoles” (BAYER PHARMA AKTIENGESELLSCHAFT, priority 2013, dated 2017).
pIC50: −log10 of the molar value.

Tests used:
[1] = target: human Bub1 (Homo sapiens (Human), UniProt O43683); experiment: Bub1 kinase assay (TR-FRET); type: biochemical; conditions: 10 μM ATP; read-out: Bub1 avg (IC50 [mol/l])
Source text: Bub1-inhibitory activity of compounds of the present invention was quantified employing the Bub1 TR-FRET assay as described in the following paragraphs.
N-terminally His6-tagged recombinant catalytic domain of human Bub1 (amino acids 704-1085), expressed in insect cells (Hi5) and purified by Ni-NTA affinity chromatography and subsequent size exclusion chromatography, was used as enzyme. As substrate for the kinase reaction the biotinylated peptide biotin-Ahx-VLLPKKSFAEPG (C-terminus in amid form) was used which can be purchased e.g. form the company Biosyntan (Berlin, Germany).
For the assay 50 nl of a 100 fold concentrated solution of the test compound in DMSO was pipetted into a black low volume 384 well microtiter plate (Greiner Bio-One, Frickenhausen, Germany), 2 μl of a solution of Bub1 in aqueous assay buffer [50 mM Tris/HCl pH 7.5, 10 mM magnesium chloride (MgCl2), 200 mM potassium chloride (KCl), 1.0 mM dithiothreitol (DTT), 0.1 mM sodium ortho-vanadate, 1% (v/v) glycerol, 0.01% (w/v) bovine serum albumine (BSA), 0.005% (v/v) Trition X-100 (Sigma), 1× Complete EDTA-free protease inhibitor mixture (Roche)] were added and the mixture was incubated for 15 min at 22° C. to allow pre-binding of the test compounds to the enzyme before the start of the kinase reaction. Then the kinase reaction was started by the addition of 3 μl of a solution of adenosine-tri-phosphate (ATP, 16.7 μM=>final conc. in the 5 μl assay volume is 10 μM) and substrate (1.67 μM=>final conc. in the 5 μl assay volume is 1 μM) in assay buffer and the resulting mixture was incubated for a reaction time of 60 min at 22° C. The concentration of Bub1 was adjusted depending of the activity of the enzyme lot and was chosen appropriate to have the assay in the linear range, typical concentrations were in the range of 200 ng/ml. The reaction was stopped by the addition of 5 μl of a solution of TR-FRET detection reagents (0.2 μM streptavidine-XL665 [Cisbio Bioassays, Codolet, France] and 1 nM anti-phosho-Serine antibody [Merck Millipore, cat. #35-001] and 0.4 nM LANCE EU-W1024 labeled anti-mouse IgG antibody [Perkin-Elmer, product no. AD0077, as an alternative a Terbium-cryptate-labeled anti-mouse IgG antibody from Cisbio Bioassays can be used]) in an aqueous EDTA-solution (50 mM EDTA, 0.2% (w/v) bovine serum albumin in 100 mM HEPES pH 7.5).
The resulting mixture was incubated 1 h at 22° C. to allow the formation of complex between the phosphorylated biotinylated peptide and the detection reagents. Subsequently the amount of phosphorylated substrate was evaluated by measurement of the resonance energy transfer from the Eu-chelate to the streptavidine-XL. Therefore, the fluorescence emissions at 620 nm and 665 nm after excitation at 350 nm was measured in a TR-FRET reader, e.g. a Rubystar or Pherastar (both from BMG Labtechnologies, Offenburg, Germany) or a Viewlux (Perkin-Elmer). The ratio of the emissions at 665 nm and at […] was taken as the measure for the amount of phosphorylated substrate. The data were normalised (enzyme reaction without inhibitor=0% inhibition, all other assay components but no enzyme=100% inhibition).

[2] = target: human kinase Mps-1 (Homo sapiens (Human), UniProt P33981); experiment: Mps-1 kinase assay (TR-FRET); type: biochemical; conditions: 10 μM ATP; read-out: Mps1 avg (IC50 [mol/l])
Chain of human kinase Mps-1 (P33981 whole entry): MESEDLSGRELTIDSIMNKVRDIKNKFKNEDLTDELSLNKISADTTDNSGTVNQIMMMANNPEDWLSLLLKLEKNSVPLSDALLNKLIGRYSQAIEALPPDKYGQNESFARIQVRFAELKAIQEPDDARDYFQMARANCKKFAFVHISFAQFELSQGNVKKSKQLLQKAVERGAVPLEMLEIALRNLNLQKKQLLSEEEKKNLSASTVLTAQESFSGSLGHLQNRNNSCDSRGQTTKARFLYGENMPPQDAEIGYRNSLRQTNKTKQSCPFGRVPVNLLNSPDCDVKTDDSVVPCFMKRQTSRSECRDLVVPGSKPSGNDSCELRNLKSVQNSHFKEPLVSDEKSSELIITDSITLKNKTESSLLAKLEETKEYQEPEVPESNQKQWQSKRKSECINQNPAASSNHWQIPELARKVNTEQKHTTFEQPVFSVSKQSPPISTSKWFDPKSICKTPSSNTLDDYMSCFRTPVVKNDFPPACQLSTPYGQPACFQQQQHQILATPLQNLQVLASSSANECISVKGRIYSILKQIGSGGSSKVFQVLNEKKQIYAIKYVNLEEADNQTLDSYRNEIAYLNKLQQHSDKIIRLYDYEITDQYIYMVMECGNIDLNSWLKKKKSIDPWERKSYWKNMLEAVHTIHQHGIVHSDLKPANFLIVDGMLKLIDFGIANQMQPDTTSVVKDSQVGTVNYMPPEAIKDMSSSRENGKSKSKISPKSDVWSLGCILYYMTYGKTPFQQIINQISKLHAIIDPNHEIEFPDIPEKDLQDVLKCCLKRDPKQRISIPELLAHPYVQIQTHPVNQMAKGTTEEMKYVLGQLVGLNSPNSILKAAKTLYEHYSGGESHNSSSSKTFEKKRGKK
Experimental: The human kinase Mps-1 phosphorylates a biotinylated substrate peptide. Detection of the phosphorylated product is achieved by time-resolved fluorescence resonance energy transfer (TR-FRET) from Europium-labelled anti-phospho-Serine/Threonine antibody as donor to streptavidin labelled with cross-linked allophycocyanin (SA-XLent) as acceptor. Compounds are tested for their inhibition of the kinase activity.
N-terminally GST-tagged human full length recombinant Mps-1 kinase (purchased from Invitrogen, Karslruhe, Germany, cat. no PV4071) was used. As substrate for the kinase reaction a biotinylated peptide of the amino-acid sequence biotin-Ahx-PWDPDDADITEILG (C-terminus in amide form, purchased from Biosyntan GmbH, Berlin) was used.
For the assay 50 nl of a 100-fold concentrated solution of the test compound in DMSO was pipetted into a black low volume 384 well microtiter plate (Greiner Bio-One, Frickenhausen, Germany), 2 μl of a solution of Mps-1 in assay buffer [0.1 mM sodium-ortho-vanadate, 10 mM MgCl2, 2 mM DTT, 25 mM Hepes pH 7.7, 0.05% BSA (w/v), 0.001% Pluronic F-127] were added and the mixture was incubated for 15 min at 22° C. to allow pre-binding of the test compounds to Mps-1 before the start of the kinase reaction. Then the kinase reaction was started by the addition of 3 μl of a solution of 16.7 μM adenosine-tri-phosphate (ATP, 16.7 μM=>final conc. in the 5 μl assay volume is 10 μM) and peptide substrate (1.67 μM=>final conc. in the 5 μl assay volume is 1 μM) in assay buffer and the resulting mixture was incubated for a reaction time of 60 min at 22° C. The concentration of Mps-1 in the assay was adjusted to the activity of the enzyme lot and was chosen appropriate to have the assay in the linear range, typical enzyme concentrations were in the range of about 0.5 nM (final conc. in the 5 μl assay volume). The reaction was stopped by the addition of 5 μl of a solution of TR-FRET detection reagents (100 mM Hepes pH 7.4, 0.1% BSA, 40 mM EDTA, 140 nM Streptavidin-XLent [#61GSTXLB, Fa. Cis Biointernational, Marcoule, France], 1.5 nM anti-phospho(Ser/Thr)-Europium-antibody [#AD0180, PerkinElmer LAS, Rodgau-Jugesheim, Germany]. Instead of the 1.5 nM anti-phospho(Ser/Thr)-Europium-antibody a mixture of 2 nM unlabeled anti-phospho ser/thr-pro antibody MPM-2 [Millipore cat. #05-368] and 1 nM LANCE EU-W1024 labeled anti-mouse IgG antibody [Perkin-Elmer, product no. AD0077] can be used).
The resulting mixture was incubated 1 h at 22° C. to allow the binding of the phosphorylated peptide to the anti-phospho(Ser/Thr)-Europium-antibody. Subsequently the amount of phosphorylated substrate was evaluated by measurement of the resonance energy transfer from the Europium-labelled anti-phospho(Ser/Thr) antibody to the Streptavidin-XLent. Therefore, the fluorescence emissions at 620 nm and 665 nm after excitation at 350 nm was measured in a Viewlux TR-FRET reader (PerkinElmer LAS, Rodgau-Jugesheim, Germany). The “blank-corrected normalized ratio” (a Viewlux specific readout, similar to the traditional ratio of the emissions at 665 nm and at 622 nm, in which blank and Eu-donor crosstalk are subtracted from the 665 nm signal before the ratio is calculated) was taken as the measure for the amount of phosphorylated substrate. The data were normalised (enzyme reaction without inhibitor=0% inhibition, all other assay components but no enzyme=100% inhibition).

Chain of human Bub1 (O43683 704-1085): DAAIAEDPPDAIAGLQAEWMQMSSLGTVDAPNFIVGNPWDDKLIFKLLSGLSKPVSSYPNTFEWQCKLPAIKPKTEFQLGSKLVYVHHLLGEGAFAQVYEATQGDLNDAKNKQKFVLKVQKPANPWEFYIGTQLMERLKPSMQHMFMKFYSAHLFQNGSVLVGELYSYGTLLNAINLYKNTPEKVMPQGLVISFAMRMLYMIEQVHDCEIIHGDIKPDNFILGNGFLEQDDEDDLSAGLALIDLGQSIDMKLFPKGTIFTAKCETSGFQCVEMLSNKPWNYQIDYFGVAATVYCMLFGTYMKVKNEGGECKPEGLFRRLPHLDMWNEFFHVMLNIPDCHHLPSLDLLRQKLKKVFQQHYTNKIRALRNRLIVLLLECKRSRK

Row | pIC50 [1] | pIC50 [2] | SMILES
1 | < 4.70 | < 4.70 | CCOc1ccc(NC(=O)c2c(C)nsc2Nc2cnc3ccccc3n2)cn1 [Example 119, N-(6-Ethoxypyridin-3-yl)-3-methyl-5-(quinoxalin-2-ylamino)-1,2-thiazole-4-carboxamide]
2 | < 4.70 | < 4.70 | Cc1nsc(Nc2cnc3ccccc3n2)c1C(=O)Nc1ccc(OC2CCCCC2)nc1 [Example 115, N-[6-(Cyclohexyloxy)pyridin-3-yl]-3-methyl-5-(quinoxalin-2-ylamino)-1,2-thiazole-4-carboxamide]
3 | < 4.70 | < 4.70 | Cc1nsc(Nc2cc(C#N)ccn2)c1C(=O)Nc1ccc(Cl)c(F)c1 [Example 54, N-(4-Chloro-3-fluorophenyl)-5-[(4-cyanopyridin-2-yl)amino]-3-methyl-1,2-thiazole-4-carboxamide]
4 | < 4.70 | < 4.70 | Cc1nsc(Nc2ccc(C#N)cn2)c1C(=O)Nc1ccc(Cl)c(F)c1 [Example 52, N-(4-Chloro-3-fluorophenyl)-5-[(5-cyanopyridin-2-yl)amino]-3-methyl-1,2-thiazole-4-carboxamide]
5 | < 4.70 | < 4.70 | CCOC(=O)c1cnc(Nc2snc(C)c2C(=O)Nc2ccc(OC)nc2)s1 [Example 29, Ethyl 2-({4-[(6-methoxypyridin-3-yl)carbamoyl]-3-methyl-1,2-thiazol-5-yl}amino)-1,3-thiazole-5-carboxylate]
6 | < 4.70 | < 4.70 | COC(=O)c1cncc(Nc2snc(C)c2C(=O)Nc2ccc(OC)nc2)n1 [Example 101, Methyl 6-({4-[(6-methoxypyridin-3-yl)carbamoyl]-3-methyl-1,2-thiazol-5-yl}amino)pyrazine-2-carboxylate]
7 | < 4.70 | < 4.70 | CCc1ccccc1NC(=O)c1c(C)nsc1Nc1nccnc1C#N [Example 34, 5-[(3-Cyanopyrazin-2-yl)amino]-N-(2-ethylphenyl)-3-methyl-1,2-thiazole-4-carboxamide]
8 | < 4.70 | < 4.70 | Cc1nsc(Nc2cnc3ccccc3n2)c1C(=O)Nc1ccc(F)c(F)c1 [Example 50, N-(3,4-Difluorophenyl)-3-methyl-5-(quinoxalin-2-ylamino)-1,2-thiazole-4-carboxamide]
9 | < 4.70 | < 4.70 | CCOC(=O)c1cnn2ccc(Nc3snc(C)c3C(=O)Nc3ccc(F)c(F)c3)nc12 [Example 55, Ethyl 5-({4-[(3,4-difluorophenyl)carbamoyl]-3-methyl-1,2-thiazol-5-yl}amino)-pyrazolo[1,5-a]pyrimidine-3-carboxylate]
10 | < 4.70 | < 4.70 | Cc1nsc(Nc2nc3c(C(F)(F)F)cccc3s2)c1C(=O)Nc1ccc(F)c(F)c1 [Example 51, N-(3,4-Difluorophenyl)-3-methyl-5-{[4-(trifluoromethyl)-1,3-benzothiazol-2-yl]-amino}-1,2-thiazole-4-carboxamide]
11 | < 4.70 | < 4.70 | COc1ccc(NC(=O)c2c(C)nsc2Nc2cnc3ccc(Cl)cc3n2)cn1 [Example 42, 5-[(7-Chloroquinoxalin-2-yl)amino]-N-(6-methoxypyridin-3-yl)-3-methyl-1,2-thiazole-4-carboxamide]
12 | < 4.70 | < 4.70 | CCc1ccccc1NC(=O)c1c(C)nsc1Nc1nc(C)nc2sccc12 [Example 38, N-(2-Ethylphenyl)-3-methyl-5-[(2-methylthieno[2,3-d]pyrimidin-4-yl)amino]-1,2-thiazole-4-carboxamide]
13 | < 4.70 | < 4.70 | CCc1ccccc1NC(=O)c1c(C)nsc1Nc1cc(C(F)(F)F)ccn1 [Example 18, N-(2-Ethylphenyl)-3-methyl-5-{[4-(trifluoromethyl)pyridin-2-yl]amino}-1,2-thiazole-4-carboxamide]
14 | < 4.70 | < 4.70 | COc1ccc(NC(=O)c2c(C)nsc2Nc2cnc3cc(Cl)ccc3n2)cn1 [Example 23, 5-[(6-Chloroquinoxalin-2-yl)amino]-N-(6-methoxypyridin-3-yl)-3-methyl-1,2-thiazole-4-carboxamide]
15 | 5.42 | < 4.70 | CCc1ccccc1NC(=O)c1c(C)nsc1Nc1nc2ccccc2o1 [Example 11, 5-(1,3-Benzoxazol-2-ylamino)-N-(2-ethylphenyl)-3-methyl-1,2-thiazole-4-carboxamide]
16 | < 4.70 | < 4.70 | Cc1nsc(Nc2cnccn2)c1C(=O)Nc1ccc(Cl)c(F)c1 [Example 56, N-(4-Chloro-3-fluorophenyl)-3-methyl-5-(pyrazin-2-ylamino)-1,2-thiazole-4-carboxamide]
17 | < 4.70 | < 4.70 | CCc1ccccc1NC(=O)c1c(C)nsc1Nc1ncccc1C#N [Example 8, 5-[(3-Cyanopyridin-2-yl)amino]-N-(2-ethylphenyl)-3-methyl-1,2-thiazole-4-carboxamide]
18 | < 4.70 | < 4.70 | COc1ccc(NC(=O)c2c(C)nsc2Nc2cnc3cccc(C)c3n2)cn1 [Example 22, N-(6-methoxypyridin-3-yl)-3-methyl-5-[(8-methylquinoxalin-2-yl)amino]-1,2-thiazole-4-carboxamide]
19 | < 4.70 | < 4.70 | Cc1nsc(Nc2cncc(C(=O)N3CCCC3)n2)c1C(=O)Nc1ccc(F)c(F)c1 [Example 106, N-(3,4-Difluorophenyl)-3-methyl-5-{[6-(pyrrolidin-1-ylcarbonyl)pyrazin-2-yl]amino}-1,2-thiazole-4-carboxamide]
